The results in this text go back to paper PMC8436214 (Journal of Medicinal Chemistry, 2021).

Entries after “also recorded” stand apart in the source; their conditions may differ.

Data set [1] has as its target T1, Human recombinant PNMT (Homo sapiens, UniProt P11086).
T1 sequence (P11086 1-282): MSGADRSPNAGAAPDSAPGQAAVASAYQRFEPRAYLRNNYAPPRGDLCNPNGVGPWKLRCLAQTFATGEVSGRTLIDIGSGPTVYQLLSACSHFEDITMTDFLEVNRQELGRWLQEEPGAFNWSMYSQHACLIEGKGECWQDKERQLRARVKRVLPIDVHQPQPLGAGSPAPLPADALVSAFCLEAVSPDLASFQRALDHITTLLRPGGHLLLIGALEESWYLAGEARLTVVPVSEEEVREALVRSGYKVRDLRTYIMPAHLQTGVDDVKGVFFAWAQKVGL
The data set can be described thus: PNMT selectivity assay. It is filed as biochemical.

The target in data set [2] is T2, PRMT4/CARM1 (Homo sapiens, UniProt Q86X55).
T2 sequence (Q86X55 1-608): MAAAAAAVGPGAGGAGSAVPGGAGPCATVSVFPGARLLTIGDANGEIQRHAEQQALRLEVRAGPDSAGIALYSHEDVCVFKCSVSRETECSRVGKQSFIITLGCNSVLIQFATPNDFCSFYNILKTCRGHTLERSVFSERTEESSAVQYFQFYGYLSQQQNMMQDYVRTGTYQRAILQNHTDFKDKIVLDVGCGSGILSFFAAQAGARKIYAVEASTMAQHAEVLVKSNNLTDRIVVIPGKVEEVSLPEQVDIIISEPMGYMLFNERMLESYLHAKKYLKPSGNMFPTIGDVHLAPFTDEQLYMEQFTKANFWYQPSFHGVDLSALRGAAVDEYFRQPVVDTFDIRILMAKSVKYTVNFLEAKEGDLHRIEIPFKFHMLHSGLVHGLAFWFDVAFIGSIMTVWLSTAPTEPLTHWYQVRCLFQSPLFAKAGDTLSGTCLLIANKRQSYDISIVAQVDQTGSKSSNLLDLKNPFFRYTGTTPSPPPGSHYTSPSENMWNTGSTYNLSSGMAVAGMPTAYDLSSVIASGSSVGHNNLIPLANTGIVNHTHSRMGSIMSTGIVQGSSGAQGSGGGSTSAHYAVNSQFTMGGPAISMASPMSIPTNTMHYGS
In words: PRMT4/CARM1 methyltransferase inhibition assay. Conditions: 3.7, 11.1, 33.3, and 100 μM. Type of data set: biochemical.

Data set [3] has as its target SMYD2 (Homo sapiens, UniProt Q9NRG4). The data set can be described thus: Methyltransferase selectivity assay. It is filed as biochemical.
Data set [4] deals with PRMT5 (Homo sapiens, UniProt O14744). The data set can be described thus: Methyltransferase selectivity assay. It is filed as biochemical.
Chain of PRMT5 (O14744 whole entry, species assumed): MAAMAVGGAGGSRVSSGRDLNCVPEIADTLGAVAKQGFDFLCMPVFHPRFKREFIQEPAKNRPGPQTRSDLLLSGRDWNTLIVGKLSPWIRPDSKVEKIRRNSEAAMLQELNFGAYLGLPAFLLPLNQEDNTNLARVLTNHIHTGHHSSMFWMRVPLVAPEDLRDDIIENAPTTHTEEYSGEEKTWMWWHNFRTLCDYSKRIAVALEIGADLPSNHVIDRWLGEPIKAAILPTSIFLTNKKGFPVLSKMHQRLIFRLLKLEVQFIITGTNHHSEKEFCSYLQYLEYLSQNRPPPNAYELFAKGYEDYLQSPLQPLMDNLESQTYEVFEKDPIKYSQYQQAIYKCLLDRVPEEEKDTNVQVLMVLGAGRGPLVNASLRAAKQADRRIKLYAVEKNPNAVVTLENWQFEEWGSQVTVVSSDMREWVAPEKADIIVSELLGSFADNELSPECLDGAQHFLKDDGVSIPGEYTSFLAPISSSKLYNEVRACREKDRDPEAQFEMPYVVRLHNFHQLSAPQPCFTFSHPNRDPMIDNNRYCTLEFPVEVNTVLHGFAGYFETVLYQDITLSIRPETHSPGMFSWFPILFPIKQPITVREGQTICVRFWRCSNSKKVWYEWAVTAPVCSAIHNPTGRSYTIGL
Chain of PRMT5 (Q9BQA1 whole entry partner, species assumed): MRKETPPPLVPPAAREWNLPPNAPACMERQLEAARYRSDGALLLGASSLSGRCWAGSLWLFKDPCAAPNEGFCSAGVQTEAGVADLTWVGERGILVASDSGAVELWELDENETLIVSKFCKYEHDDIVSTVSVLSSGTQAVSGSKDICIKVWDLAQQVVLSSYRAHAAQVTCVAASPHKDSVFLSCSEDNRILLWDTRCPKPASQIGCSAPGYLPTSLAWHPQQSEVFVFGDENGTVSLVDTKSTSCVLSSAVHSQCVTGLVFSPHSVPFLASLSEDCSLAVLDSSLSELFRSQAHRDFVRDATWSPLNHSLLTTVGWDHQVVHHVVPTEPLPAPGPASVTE
Data set [5] concerns the target DOT1L (Homo sapiens, UniProt Q8TEK3). The data set can be described thus: Methyltransferase selectivity assay. Type of data set: biochemical.
Data set [6] relates to HSC-2 human oral cancer cell line. In words: MTT cell proliferation/viability assay. Type of data set: cell-based.
The subject of data set [7] is A549 human lung cancer line. The data set can be described thus: MTT cell proliferation/viability assay. Type of data set: cell-based.
Data set [8] has as its system T24 human bladder cancer cell line. In words: MTT cell proliferation/viability assay. It is filed as cell-based.
A short description of data set [9]: Parallel artificial membrane permeability assay. Type of data set: in vitro ADME. Conditions: PAMPA. (In PAMPA a lipid-coated filter parts donor from acceptor wells.)
Setting [10] is: lower concentrations tested (from 1 μM).

Chain of SMYD2 (Q9NRG4 whole entry, species assumed): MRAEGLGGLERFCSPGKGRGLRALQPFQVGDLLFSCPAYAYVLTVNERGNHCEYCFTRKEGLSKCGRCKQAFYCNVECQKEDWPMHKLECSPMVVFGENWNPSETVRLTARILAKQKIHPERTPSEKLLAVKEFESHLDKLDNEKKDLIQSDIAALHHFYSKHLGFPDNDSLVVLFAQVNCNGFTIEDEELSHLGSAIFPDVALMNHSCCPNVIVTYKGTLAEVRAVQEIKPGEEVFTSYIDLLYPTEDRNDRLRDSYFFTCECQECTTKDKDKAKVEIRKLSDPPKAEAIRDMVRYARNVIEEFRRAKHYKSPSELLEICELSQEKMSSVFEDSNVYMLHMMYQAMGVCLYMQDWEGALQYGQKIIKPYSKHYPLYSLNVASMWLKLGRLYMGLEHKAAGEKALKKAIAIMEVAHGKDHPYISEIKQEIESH
Chain of DOT1L (Q8TEK3 whole entry, species assumed): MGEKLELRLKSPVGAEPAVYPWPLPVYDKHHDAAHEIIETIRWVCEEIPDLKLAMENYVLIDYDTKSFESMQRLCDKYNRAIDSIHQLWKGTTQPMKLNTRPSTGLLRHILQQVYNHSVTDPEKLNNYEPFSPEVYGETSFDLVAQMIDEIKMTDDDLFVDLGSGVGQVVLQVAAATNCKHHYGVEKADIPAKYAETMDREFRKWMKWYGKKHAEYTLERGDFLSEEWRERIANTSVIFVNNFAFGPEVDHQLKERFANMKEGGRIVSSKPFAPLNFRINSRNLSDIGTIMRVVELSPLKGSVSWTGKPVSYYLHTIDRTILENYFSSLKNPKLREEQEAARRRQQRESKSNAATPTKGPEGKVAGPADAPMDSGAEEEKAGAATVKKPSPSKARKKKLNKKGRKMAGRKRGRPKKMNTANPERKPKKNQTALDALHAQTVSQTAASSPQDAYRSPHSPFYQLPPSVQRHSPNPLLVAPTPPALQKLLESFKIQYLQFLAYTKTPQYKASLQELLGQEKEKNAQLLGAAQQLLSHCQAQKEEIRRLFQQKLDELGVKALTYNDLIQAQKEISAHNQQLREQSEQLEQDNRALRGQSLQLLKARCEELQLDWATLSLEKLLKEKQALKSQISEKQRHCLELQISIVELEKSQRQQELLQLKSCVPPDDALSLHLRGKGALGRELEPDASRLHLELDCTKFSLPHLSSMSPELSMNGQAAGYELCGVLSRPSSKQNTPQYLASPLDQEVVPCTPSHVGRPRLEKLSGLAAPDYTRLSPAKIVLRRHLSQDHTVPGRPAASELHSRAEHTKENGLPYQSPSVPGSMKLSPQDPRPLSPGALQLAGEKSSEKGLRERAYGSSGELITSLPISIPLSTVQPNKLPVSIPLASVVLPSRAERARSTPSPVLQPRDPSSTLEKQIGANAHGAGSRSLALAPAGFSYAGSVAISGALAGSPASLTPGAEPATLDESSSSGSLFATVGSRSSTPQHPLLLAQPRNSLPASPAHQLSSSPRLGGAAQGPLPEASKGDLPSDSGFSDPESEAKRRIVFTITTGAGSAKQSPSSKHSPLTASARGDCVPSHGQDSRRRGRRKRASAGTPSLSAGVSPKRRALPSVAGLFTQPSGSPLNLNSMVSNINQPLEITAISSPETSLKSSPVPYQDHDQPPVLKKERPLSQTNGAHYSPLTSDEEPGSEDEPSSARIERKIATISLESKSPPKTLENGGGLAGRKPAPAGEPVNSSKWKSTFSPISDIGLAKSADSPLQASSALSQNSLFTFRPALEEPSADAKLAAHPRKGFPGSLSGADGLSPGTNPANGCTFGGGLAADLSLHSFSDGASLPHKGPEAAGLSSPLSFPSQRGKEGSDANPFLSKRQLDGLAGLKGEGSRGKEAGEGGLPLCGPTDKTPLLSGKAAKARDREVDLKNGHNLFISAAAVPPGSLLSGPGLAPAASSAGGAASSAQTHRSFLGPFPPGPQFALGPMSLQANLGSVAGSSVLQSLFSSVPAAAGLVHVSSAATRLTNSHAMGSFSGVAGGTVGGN

Turning to `N#Cc1ccc(/C=C/CN(CC[C@H](N)C(=O)O)C[C@H]2O[C@@H](n3cnc4c(N)ncnc43)[C@H](O)[C@@H]2O)cc1` [Compound 17u, (S)-2-Amino-4-((((2R,3S,4R,5R)-5-(6-amino-9H-purin-9-yl)-3,4-dihydroxytetrahydrofuran-2-yl)methyl)((E)-3-(4-cyanophenyl)allyl)amino)butanoic Acid], in [1] (1 and 10 μM), the “PNMT inhibition at the concentrations tested” value is reported as “less than 50%”. For the same compound, in data set [1] (selectivity NNMT over PNMT), the “inhibitory activity against PNMT lower than against NNMT” value is on record as “more than 3000 fold”. Moreover, the “PRMT4/CARM1 inhibition at the concentrations tested” value in data set [2] is “no inhibition was observed”. Besides, the activity at 1 µM in [3] (read-out: SMYD2 Average Activity (%) 1µM) came out at 39%. Moreover, the activity at 10 µM in data set [3] (read-out: SMYD2 Average Activity (%) 10µM) worked out at 19%. Also, in data set [3] (selectivity NNMT over SMYD-2), the “higher potency toward NNMT (than SMYD-2)” value is greater than 100 fold. The “PRMT5 activity of the compound (in words)” value in data set [4] (1 μM) is on record as “no appreciable activity”. For the same compound, the inhibition at 10 µM in data set [4] (read-out: PRMT5 inhibition) and in [5] (read-out: DOT1L inhibition) was greater than 50% each time. In addition, the “DOT1L activity of the compound (in words)” value in data set [5] (1 μM) is on record as “no appreciable activity”. The “effect on cell viability, HSC-2” value is “clear inhibition of the cell viability; also recorded: significant decrease in cell viability” in data set [6] (100 μM, MTT, 24, 48 and 72 h); “absent” in [6] (setting [10]). In addition, the “effect on cell viability, A549” value is listed as “clear inhibition of the cell viability; also recorded: significant decrease in cell viability” in data set [7] (100 μM, MTT, 24, 48 and 72 h); “absent” in data set [7] (setting [10]). In addition, the “effect on cell viability, T24” value in [8] (100 μM, MTT, 24, 48 and 72 h) is “clear inhibition of the cell viability; also recorded: significant decrease in cell viability”; in data set [8] (setting [10]), “absent”. Besides, the “cell permeability (in words)” value in [9] is recorded as “very poor cell permeability; also recorded: poor cell permeability”.
